Results reported in publication PMC11249646, “Small-Molecule Disruptors of the Interaction between Calcium- and Integrin-Binding Protein 1 and Integrin αIIbβ3 as Novel Antiplatelet Agents” (ACS Pharmacology & Translational Science, 2024).
Like-named read-outs stand apart in the source and are kept apart here.

How the values were obtained:
Format in all cases: binding
[1] = target: T1, CIB1 and αIIb interaction (GST-CIB1 : F-αIIb peptide) (Homo sapiens, UniProt Q99828); assay: FP assay, 384-well format (screen); design: 384-well SCREEN Efficacy (%): concentration or dose not given beside the values; conditions: F-αIIb peptide; for 384-well SCREEN Confirm?: YES/NO; for IC50: read-out: 384-well SCREEN IC50
T1 construct: made in house; host or cells: BL-21 plus RIL cells (E. coli)
T1 sequence (Q99828 1-191): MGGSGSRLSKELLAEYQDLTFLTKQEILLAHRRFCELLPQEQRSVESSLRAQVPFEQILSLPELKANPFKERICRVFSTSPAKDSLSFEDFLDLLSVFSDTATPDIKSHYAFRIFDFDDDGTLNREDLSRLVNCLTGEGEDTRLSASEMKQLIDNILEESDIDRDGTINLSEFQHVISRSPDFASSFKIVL

[2] = target: T2, GST-CIB1 : F-scrambled peptide (Homo sapiens, UniProt Q99828); assay: FP scrambled-peptide counter screen, 384-well format; conditions: F-scrambled peptide; for 384-well COUNTERSCREEN Confirm?: *: Curve in opposite direction; for IC50: read-out: 384-well COUNTERSCREEN IC50
T2 construct: made in house; host or cells: BL-21 plus RIL cells (E. coli)
T2 sequence (Q99828 1-191): T1 sequence (Q99828 1-191)

[3] = target: T3, CIB1 and αIIb interaction (CIB1-GST : F-αIIb peptide) (Homo sapiens, UniProt Q99828); assay: FP assay, 1536-well qHTS format (primary and confirmatory screen); conditions: for CONFIRMATORY SCREEN Confirm?: YES/NO call; for CONFIRMATORY SCREEN Curve Class: qHTS curve class; for CONFIRMATORY SCREEN Curve Class / Curve Class: negative sign = inhibitory curve; for CONFIRMATORY SCREEN Efficacy (%) / Efficacy (%): negative = inhibition
T3 construct: made in house; host or cells: BL-21 plus RIL cells (E. coli)
T3 sequence (Q99828 1-191): T1 sequence (Q99828 1-191)

[4] = target: T2, GST-CIB1 : F-scrambled peptide; assay: FP scrambled-peptide counter screen, 1536-well format; conditions: scrambled-peptide counterscreen; for COUNTERSCREEN Confirm?: YES/NO call; for COUNTERSCREEN Curve Class: qHTS curve class
[5] = confirmatory screen, read-out: CONFIRMATORY SCREEN IC50
[6] = qHTS primary screen hits, Table S2
[7] = qHTS primary screen hits, Table S2, several classes where COUNT > 1
[8] = qHTS primary screen hits, Table S2, read-out: IC50

SMILES | 384-well SCREEN Efficacy (%) [1] [%] | 384-well SCREEN Confirm? [1] | IC50 [1] [µM] | 384-well COUNTERSCREEN Efficacy (%) [2] [%] | 384-well COUNTERSCREEN Confirm? [2] | IC50 [2] [µM] | CONFIRMATORY SCREEN Confirm? ([3]; confirmatory screen) | CONFIRMATORY SCREEN Curve Class ([3]; confirmatory screen) | CONFIRMATORY SCREEN Efficacy (%) ([3]; confirmatory screen) | IC50 [3, 5] [µM] | Efficacy (%) [3, 6] [%] | Curve Class [3, 7] | IC50 [3, 8] [µM] | COUNTERSCREEN Efficacy (%) [4] [%] | COUNTERSCREEN Confirm? [4] | COUNTERSCREEN Curve Class [4] | Curve Class [3, 6] | IC50 ([4]; read-out: COUNTERSCREEN IC50) [µM]
Cc1ccc(S(=O)(=O)Nc2cnccc2C(=O)Nc2nc(-c3cccc(C)c3)cs2)cc1.O=C(O)C(F)(F)F [NCGC00343524-02] | 42 | YES | 10.1 | 60 | YES* | 14.1 | YES | -2.1 | -128 | 20 | -40 | -2.2 | 35.5 | 14 | YES | 4 | – | –
Cc1ccc(S(=O)(=O)Nc2cnccc2C(=O)Nc2nc(-c3nc4ccccc4s3)cs2)cc1.O=C(O)C(F)(F)F [NCGC00343736-01] | 44 | YES | 22.4 | 23 | YES | > 120 | YES | -1.1 | -89 | – | -51 | – | 28.2 | -16 | YES | 4 | -1.2 | –
N#Cc1cnc(NS(=O)(=O)c2ccc(NC(=O)Cc3ccc(F)c(Cl)c3)cc2)s1.O=C(O)C(F)(F)F [NCGC00343826-01] | 36 | YES | 2.2 | 28 | YES | > 120 | YES | -1.4 | -50 | – | -29 | -1.2 | 2.8 | 24 | YES | 4 | – | –
Cc1ccc(S(=O)(=O)Nc2cnccc2C(=O)Nc2nc3ccccc3s2)cc1.O=C(O)C(F)(F)F [NCGC00343897-01] | 30 | YES | 12.6 | 16 | YES | > 120 | YES | -1.4 | -52 | 10 | -44 | -1.2 | 31.6 | 17 | YES | 4 | – | –
N[C@@H](Cc1ccc(Oc2cc(I)c(O)c(I)c2)c(I)c1)C(=O)O [NCGC00344545-01] | 46 | YES | 10 | 51 | – | 3.1 | YES | -1.2 | -60 | 15.8 | -39 | -2.2 | 39.8 | -19 | YES | 4 | – | –
Cc1cc(SCc2sc(-c3ccc(Cl)c(Cl)c3)nc2C)ccc1OCc1nnn[nH]1.O=C(O)C(F)(F)F [NCGC00344871-01] | 42 | – | > 120 | 167 | – | 44.7 | YES | -1.2 | -63 | 15.8 | -38 | -1.2 | 17.8 | 204 | YES | – | – | 79.4
O=C(Nc1nc(-c2ccccc2)cs1)c1ccncc1NS(=O)(=O)c1ccc(Cl)cc1.O=C(O)C(F)(F)F [NCGC00344892-02] | 31 | YES | 35.5 | 55 | YES | > 120 | YES | -1.2 | -69 | 25.1 | – | – | – | 13 | YES | 4 | – | –
